Consider three molecules from paper PMC9537510, “Reduction of stress responses in honey bees by synthetic ligands targeting an allatostatin receptor” (Scientific Reports, 2022).

Common to all, as to assay type: cell-based
The target in assay [1] is T1, allatostatin A receptor (ASTA-R) (Apis mellifera, UniProt A0A7M7ILT1).
T1 construct: gene LOC413582; receptor expressed in transfected HEK293T cells (NCBI: XP_006560262.1 used for the model)
T1 sequence (A0A7M7ILT1 1-361): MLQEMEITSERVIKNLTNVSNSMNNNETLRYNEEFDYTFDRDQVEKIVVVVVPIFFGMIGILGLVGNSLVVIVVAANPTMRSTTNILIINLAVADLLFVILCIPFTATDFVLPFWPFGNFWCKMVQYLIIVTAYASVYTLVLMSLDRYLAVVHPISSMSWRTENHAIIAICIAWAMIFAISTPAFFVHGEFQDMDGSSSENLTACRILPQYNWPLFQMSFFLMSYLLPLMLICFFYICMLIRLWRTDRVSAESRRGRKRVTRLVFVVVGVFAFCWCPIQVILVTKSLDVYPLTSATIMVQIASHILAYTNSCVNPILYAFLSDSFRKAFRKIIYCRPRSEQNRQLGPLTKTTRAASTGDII
As to the kind of experiment: competition binding with fluorescence-labeled ASTA on ASTA-R-transfected HEK cells.

Assay [2] concerns the target T1, allatostatin A receptor (ASTA-R). The assay can be described thus: competition binding with fluorescence-labeled ASTA on ASTA-R-transfected HEK cells; also cAMP antagonism.
For assay [3] the target is unchanged. As to the kind of experiment: reversal of ASTA inhibition of forskolin-induced cAMP in ASTA-R-expressing cells; also weak competition binding (IC50 > […]).

Where only a bound is given, the exact number is not on record here.

As to `O=C(CSCCCc1ccccc1)Nc1cc(C(F)(F)F)ccc1-n1cncn1` [B3, N-(2-(1H-1,2,4-triazol-1-yl)-5-(trifluoromethyl)phenyl)-2-((3-phenylpropyl)thio)acetamide], the IC50 in assay [1] is > 10 µM.
For the molecule `Cc1ccc(-n2cncn2)c(NC(=O)CSCCc2ccccc2)c1` [B5, N-(5-methyl-2-(1H-1,2,4-triazol-1-yl)phenyl)-2-(phenethylthio)acetamide], the 50% inhibitory concentration (IC50) in assay [2] was > 10 µM.
`Cc1ccc(-n2cncn2)c(NC(=O)CSCCCc2ccccc2)c1` [B6, N-(5-methyl-2-(1H-1,2,4-triazol-1-yl)phenyl)-2-(phenypropylthio)acetamide]: the “reversal of ASTA inhibition of forskolin-induced cAMP in ASTA-R-expressing cells” value in assay [3] is “both B5 and B6 act as ASTA antagonists by interacting with ASTA-R”.
